# Columns and labels:
# Experiment in all cases: relative viability (nuclei count vs DMSO), 5 days (fraction); higher = more cells survive
# VX-702 + Phenformin = compound: NC(=O)c1ccc(N(C(N)=O)c2c(F)cccc2F)nc1-c1ccc(F)cc1F [VX-702] + N=C(N)NC(=N)NCCc1ccccc1 [Phenformin] (partner 250 µM)
# Summary of the method: (§1)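 Lung cancer cell lines were seeded in 1536-well plates and dosed by pin tool the next day, with either a single drug or a fixed anchor-drug dose combined with five library-drug doses (not always all listed) spaced in √10 steps. Five days later, one step fixed the cells and stained their nuclei (final 0.05% Triton X-100, 1% formaldehyde, 1 ug/ml Hoechst), and nuclei were counted on 4× images. Relative viability is the nuclei count in treated wells divided by the count in vehicle wells, and each value is the median of duplicate plates.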
# Dabrafenib + Palbociclib = compound: CC(C)(C)c1nc(-c2cccc(NS(=O)(=O)c3c(F)cccc3F)c2F)c(-c2ccnc(N)n2)s1 [Dabrafenib] + CC(=O)c1c(C)c2cnc(Nc3ccc(N4CCNCC4)cn3)nc2n(C2CCCC2)c1=O [Palbociclib] (partner 0.5 µM)
# Summary of the method: as §1
# Dabrafenib + Phenformin = compound: CC(C)(C)c1nc(-c2cccc(NS(=O)(=O)c3c(F)cccc3F)c2F)c(-c2ccnc(N)n2)s1 [Dabrafenib] + N=C(N)NC(=N)NCCc1ccccc1 [Phenformin] (partner 250 µM)
# Summary of the method: as §1
# VX-702 + Decitabine = compound: NC(=O)c1ccc(N(C(N)=O)c2c(F)cccc2F)nc1-c1ccc(F)cc1F [VX-702] + Nc1ncn([C@H]2C[C@H](O)[C@@H](CO)O2)c(=O)n1 [Decitabine] (partner 2 µM)
# Summary of the method: as §1
# VX-702 + Dasatinib = compound: NC(=O)c1ccc(N(C(N)=O)c2c(F)cccc2F)nc1-c1ccc(F)cc1F [VX-702] + Cc1nc(Nc2ncc(C(=O)Nc3c(C)cccc3Cl)s2)cc(N2CCN(CCO)CC2)n1 [Dasatinib] (partner 0.075 µM)
# Summary of the method: as §1
cell line,measurement,setting,value
SW 900,relative viability,VX-702 + Phenformin; first compound 0.02 µM,0.634
same,relative viability,VX-702 + Phenformin; first compound 0.2 µM,0.585
same,relative viability,VX-702 + Phenformin; first compound 0.6325 µM,0.869
same,relative viability,VX-702 + Phenformin; first compound 2 µM,0.546
same,relative viability,Dabrafenib + Palbociclib; first compound 0.009487 µM,0.532
same,relative viability,Dabrafenib + Palbociclib; first compound 0.09487 µM,0.523
same,relative viability,Dabrafenib + Palbociclib; first compound 0.3 µM,0.58
same,relative viability,Dabrafenib + Phenformin; first compound 0.009487 µM,0.579
same,relative viability,Dabrafenib + Phenformin; first compound 0.03 µM,0.561
same,relative viability,Dabrafenib + Phenformin; first compound 0.3 µM,0.86
same,relative viability,VX-702 + Decitabine; first compound 0.02 µM,0.47
same,relative viability,VX-702 + Decitabine; first compound 0.2 µM,0.375
same,relative viability,VX-702 + Decitabine; first compound 0.6325 µM,0.393
same,relative viability,VX-702 + Decitabine; first compound 2 µM,0.425
same,relative viability,VX-702 + Dasatinib; first compound 0.02 µM,0.541
same,relative viability,VX-702 + Dasatinib; first compound 0.2 µM,0.664
same,relative viability,VX-702 + Dasatinib; first compound 0.6325 µM,0.56
same,relative viability,VX-702 + Dasatinib; first compound 2 µM,0.818

# Source: the supplement of paper PMC10307832
